Source: patent publication US20150284394A1, “INHIBITORS OF BRUTON'S TYROSINE KINASE” (HOFFMANN-LA ROCHE INC., priority 2012, published 2015)

Legend:
Bruton's Tyrosine Kinase = Bruton's Tyrosine Kinase (Homo sapiens, UniProt Q06187); test: Bruton's Tyrosine Kinase (BTK) Inhibition TR-FRET competition assay; assay type: binding; conditions: inactivated state of BTK; Kinase Tracer 178; 18-24 h at 14° C
Experimental: This BTK competition assay measures compound potency (IC50) for the inactivated state of Bruton's Tyrosine Kinase using FRET (Forster/Fluorescence Resonance Energy Transfer) technology. The BTK-Eu complex was incubated on ice one hour prior to use at a starting concentration of 50 nM BTK-Bioease™: 10 nM Eu-streptavidin (Perkin-Elmer Catalog# AD0062). The assay buffer consisted of 20 mM HEPES (pH 7.15), 0.1 mM DTT, 10 mM MgCl2, 0.5 mg/ml BSA with 3% Kinase Stabilizer (Fremont Biosolutions, Catalog # STB-K02). After 1 h, the reaction mixture from above was diluted 10 fold in assay buffer to make 5 nM BTK: 1 nM Eu-Streptavidin complex (donor fluorophore). […] of a mixture of 0.11 nM BTK-Eu and 0.11 nM Kinase Tracer 178 (Invitrogen, Catalog # PV5593,) with BTK-Eu alone as no negative control, was then dispensed into 384-well flat bottom plates (Greiner, 784076). Compounds to be tested in assay were prepared as 10× concentrations and serial dilution in half-log increments was performed in DMSO so as to generate 10 point curves. To initiate the FRET reaction, compounds prepared as 10× stock in DMSO was added to the plates and the plates were incubated 18-24 h at 14° C.
After the incubation the plates were read on a BMG Pherastar Fluorescent plate reader (or equivalent) and used to measure the emission energy from the europium donor fluorophore (620 nm emission) and the FRET (665 nm emission). The negative control well values were averaged to obtain the mean minimum. The positive “no inhibitor” control wells were averaged to obtain the mean maximum. Percent of maximal FRET was calculated using following equation:
% max FRET=100×[(FSRcmpd−FSRmean min)/(FSRmean max−FSRmean min)]
where FSR=FRET Signal ratio. % Max FRET curves were plotted in Activity Base (Excel) and the IC50(%), hill slope, z′ and % CV were determined. The mean IC50 and standard deviation will be derived from duplicate curves (singlet inhibition curves from two independent dilutions) using Microsoft Excel.

B cells in human blood = test: Inhibition of B cell activation in whole blood measured by CD69 expression; assay type: cell-based; conditions: anti-IgM stimulation, 20 hours, CD69-positive cells that are also CD20-positive, read-out: HWB IC50
Experimental: A procedure to test the ability of Btk inhibitors to suppress B cell receptor-mediated activation of B cells in human blood is as follows:
Human whole blood (HWB) is obtained from healthy volunteers, with the following restrictions: 24 hr drug-free, non-smokers. Blood is collected by venipuncture into Vacutainer tubes anticoagulated with sodium heparin. Test compounds are diluted to ten times the desired starting drug concentration in PBS (20×), followed by three-fold serial dilutions in 10% DMSO in PBS to produce a nine point dose-response curve. 5.5 μl of each compound dilution is added in duplicate to a 2 ml 96-well V bottom plate (Analytical Sales and Services, #59623-23); 5.5 μl of 10% DMSO in PBS is added to control and no-stimulus wells. HWB (100 μl) is added to each well, and after mixing the plates are incubated at 37 C, 5% CO2, 100% humidity for 30 minutes. Goat F(ab′)2 anti-human IgM (Southern Biotech, #2022-14) (10 μl of a 500 μg/ml solution, 50 μg/ml final concentration) is added to each well (except the no-stimulus wells) with mixing and the plates are incubated for an additional 20 hours.
At the end of the 20 hour incubation, samples are incubated with florescent-probe-labeled anti-bodies (15 μl PE Mouse anti-Human CD20, BD Pharmingen, #555623, and/or 20 ul APC Mouse anti-Human CD69, BD Pharmingen #555533) for 30 minutes, at 37 C, 5% CO2, 100% humidity. Included are induced control, unstained and single stains for compensation adjustments and initial voltage settings. Samples are then lysed with 1 ml of 1× Pharmingen Lyse Buffer (BD Pharmingen #555899), and plates are centrifuged at 1800 rpm for 5 minutes. Supernatants are removed via suction and the remaining pellets are lysed again with another 1 ml of 1× Pharmingen Lyse Buffer, and plates are spun down as before. Supernatants are aspirated and remaining pellets are washed in FACs buffer (PBS+1% FBS). After a final spin, the supernantants are removed and pellets are resuspended in 180 μl of FACs buffer. Samples are transferred to a 96 well plate suitable to be run on the HTS 96 well system on the BD LSR II flow cytometer.
Using appropriate excitation and emission wavelengths for the fluorophores used, data are acquired and percent positive cell values are obtained using Cell Quest Software. Results are initially analyzed by FACS analysis software (Flow Jo). […] The IC50 values are calculated using XLfit software version 3, equation 201.

Chain of Bruton's Tyrosine Kinase (Q06187 whole entry): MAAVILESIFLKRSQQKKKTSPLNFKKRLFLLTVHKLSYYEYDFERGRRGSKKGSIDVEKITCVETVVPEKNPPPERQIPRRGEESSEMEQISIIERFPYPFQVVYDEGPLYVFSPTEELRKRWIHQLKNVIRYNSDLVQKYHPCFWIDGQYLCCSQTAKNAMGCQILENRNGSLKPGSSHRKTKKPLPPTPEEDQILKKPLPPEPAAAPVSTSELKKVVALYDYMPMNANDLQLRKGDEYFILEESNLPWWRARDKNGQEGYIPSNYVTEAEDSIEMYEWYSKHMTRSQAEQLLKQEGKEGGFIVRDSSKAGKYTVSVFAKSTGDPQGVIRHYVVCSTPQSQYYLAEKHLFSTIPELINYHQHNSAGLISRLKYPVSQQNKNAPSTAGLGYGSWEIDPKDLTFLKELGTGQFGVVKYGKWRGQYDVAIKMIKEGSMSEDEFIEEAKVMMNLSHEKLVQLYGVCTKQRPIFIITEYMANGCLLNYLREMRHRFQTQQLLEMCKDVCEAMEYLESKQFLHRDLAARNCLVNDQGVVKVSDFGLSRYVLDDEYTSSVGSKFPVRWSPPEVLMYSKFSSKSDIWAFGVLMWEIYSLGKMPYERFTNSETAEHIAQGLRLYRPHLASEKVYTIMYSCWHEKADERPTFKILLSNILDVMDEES

| IC50 (Bruton's Tyrosine Kinase) | IC50 (B cells in human blood) | SMILES |
| --- | --- | --- |
| 0.11 nM | 2 nM | Cn1cc(-c2cc3c(-c4ccc(CNC(=O)c5nc(C(C)(C)C)no5)c(F)c4)ncnc3[nH]2)cn1 [Compound I-49, 3-tert-Butyl-[1,2,4]oxadiazole-5-carboxylic acid 2-fluoro-4-[6-(1-methyl-1H-pyrazol-4-yl)-7H-pyrrolo[2,3-d]pyrimidin-4-yl]-benzylamide] |
| 8 nM | 5480 nM | Cn1cc(-c2cc3c(-c4ccc(CNC(=O)c5ccc(C6CC6)cc5)cc4)ncnc3[nH]2)cn1 [Compound I-22, 4-Cyclopropyl-N-{4-[6-(1-methyl-1H-pyrazol-4-yl)-7H-pyrrolo[2,3-d]pyrimidin-4-yl]-benzyl}-benzamide] |
| 3.2 nM | 674 nM | Cn1cc(-c2cc3c(-c4ccc(CNC(=O)c5cc6n(n5)CCCC6)c(F)c4)ncnc3[nH]2)cn1 [Compound I-47, N-(2-fluoro-4-(6-(1-methyl-1H-pyrazol-4-yl)-7H-pyrrolo[2,3-d]pyrimidin-4-yl)benzyl)-4,5,6,7-tetrahydropyrazolo[1,5-a]pyridine-2-carboxamide] |
| 0.5 nM | 230 nM | CN(C)CCn1cc(-c2cc3c(-c4ccc(CNC(=O)c5ccc(C(C)(C)C)cc5)c(F)c4)ncnc3[nH]2)cn1 [Compound I-42, 4-tert-Butyl-N-(4-{6-[1-(2-dimethylamino-ethyl)-1H-pyrazol-4-yl]-7H-pyrrolo[2,3-d]pyrimidin-4-yl}-2-fluoro-benzyl)-benzamide] |
| 0.52 nM | 188 nM | CN(C)CCn1cc(-c2cc3c(-c4ccc(CNC(=O)N5Cc6ccccc6C5)c(F)c4)ncnc3[nH]2)cn1 [Compound I-44, 1,3-Dihydro-isoindole-2-carboxylic acid 4-{6-[1-(2-dimethylamino-ethyl)-1H-pyrazol-4-yl]-7H-pyrrolo[2,3-d]pyrimidin-4-yl}-2-fluoro-benzylamide] |
| 0.6 nM | 222 nM | CCOC(=O)Cn1cc(-c2cc3c(-c4ccc(CNC(=O)c5ccc(C(C)(C)C)cc5)c(F)c4)ncnc3[nH]2)cn1 [Compound I-45, [4-(4-{4-[(4-tert-Butyl-benzoylamino)-methyl]-3-fluoro-phenyl}-7H-pyrrolo[2,3-d]pyrimidin-6-yl)-pyrazol-1-yl]-acetic acid ethyl ester] |
